US20040071718A1, “Local nasal immunotherapy for allergen-induced airway inflammation” (priority 2002, published 2004)
Marks after values point to notes of the source that are not given here.

Assays:
Format in all cases: in vivo
Balb/c mice [1] = test: Leukocyte subpopulations in BALF of rDp2-sensitized mice after local nasal immunotherapy (LNIT); conditions: BALF
Procedure: Male Balb/c mice were obtained from the National Laboratory Breeding Research Center in Taiwan and were raised in a specific pathogen-free environment. The mice used were between six and eight weeks of age. Groups of six mice were caged separately according to their treatment. Recombinant Dermatophoides pteronyssinus group 2 (rDp2) was prepared as previously described(Tsai J J, et al. Int Arch Allergy Immunol 2000;121:205-10). Dp2 28-40 and Dp2 28-40A were obtained from Dr. Jonathan Lamb (Respiratory Medicine Unit, Edinburgh University, Medical School, Edinburgh, UK) (Verhoef A, and Lamb J R. J Immunol 2000;164:6034-6040). FIP was obtained from Dr. Ko Jiunn-Liang (Institute of Toxicology, Chung Shan Medical University, Taichung, R O C) (J L Ko, et al. Eur. J. Biochem. 1995;228:244-249).
(§1) Mice were immunized by way of an intraperitoneal (IP) injection of 1 μg/0.1 mL rDp2 emulsified in 4.0 mg/0.062mL aluminum hydroxide Al(OH)3 (Whitehall Lab Ltd. Punchbowl, NSW, Australia) on day 0 and day 7. Following immunization, local nasal immunotherapy (LNIT) was conducted daily from day 14 to day 35 with Dp2 28-40, Dp2 28-40A, FIP alone or FIP mixed with either Dp2 28-40 or Dp2 28-40A (FIP, 50 μg/mouse/day; Dp2 peptide, 1 μg/20 μL) in PBS with 10% glycerol. Normal saline (NS) and irrelevant allergen Bt were used as a negative control. […] On day 28, mice were lightly anesthetized with an IP injection of 60 mg/kg of sodium pentobarbital (Sigma Chemical Co., St Louis, Mo., U.S.A.) and inoculated intratracheally (IT) with 1 μg/50 μL of rDp 2 on day 28 and day 35. Two days subsequent to the second IT inoculation, the mice were sacrificed following the assessment of their pulmonary function (FIG. 1).
Subsequent to pulmonary function measurement having been completed, bronchoalveolar lavage (BAL) was performed using the following procedure. BAL fluids were collected with lmL sterile endotoxin-free saline washes of each lung via the trachea for each mouse. BAL cells were washed once with PBS by centrifugation at 200×g at 4° C. Subsequent to washing, the cells were resuspended in RPMI-1640 (Sigma Chemical Co.). The total leukocyte count in BAL fluids was determined using a hemocytometer. The BAL fluids were aspirated and stored at −70° C. until needed for assay purposes. Subsequent to total leukocyte counting, a cytospin preparation of 100 μL BAL fluids (2×10^5 cells/mL) was conducted, the cells being cytocentrifuged directly onto glass slides at 350 r.p.m. for five minutes using a Cytospin 3 cytocentrifuge (Shandon Scientific Limited, Astmoor, Runcorn, UK), and then stained with Liu stain (Tonyar Diagnostic Inc, Taipei & Hien, Taiwan). The differential counts were performed for a total of 200 leukocyte cells.

Balb/c mice [2] = test: Cytokine producing cells in peripheral blood (flow cytometry) after LNIT; conditions: for IL-5/IFN-γ (CD4) / IL-5/IFN-γ (CD8): peripheral blood
Procedure: (§2) Male Balb/c mice were obtained from the National Laboratory Breeding Research Center in Taiwan and were raised in a specific pathogen-free environment. The mice used were between six and eight weeks of age. Groups of six mice were caged separately according to their treatment.
as §1
Two-color staining methods were used to analyze IFN-γ and IL-5 expression amongst CD4 cells. Leukocytes derived from peripheral blood (PBL) were stimulated with PMA (50 ng/mL), ionomycin (2 μM) and GolgiStop (Cytofix/Cytoperm Plus Pharmingen San Diego, Calif., U.S.A.) for five hours and then washed twice using PBS. The cells were stained with CD4-PerCP, CD8-FITC or IgG1-FITC (PharMingen) at room temperature (RT) for 30 minutes and then washed. Cells were fixed with cytofix/cytoperm at RT for 30 minutes and then stained with anti-cytokine antibody and IgG2a-PE (PharMingen) at RT for 30 minutes and subsequently washed. Both IgG1-FITC and IgG2a-PE were purchased from the same manufacturer as the anticytokine antibodies and the negative controls. Cells were resuspended in 0.5 mL PBS containing 0.1% w/v sodium azide. Mean fluorescence was measured by means of Becton Diskinson flow cytometry (Becton Diskinson, Calif., U.S.A.). A total of 2,000 cells was analyzed for each sample.

Balb/c mice [3] = test: IL-5 and IFN-γ levels in sera and BALF (ELISA) after LNIT; conditions: Example 2, mean ± SEM, n = 6
Procedure: as §2, §1
IFN-γ and IL-5 were measured using commercially-available ELISA kits, using a specific mouse monoclonal Ab that recognized different epitopes of the cytokine molecules. The lowest detector range was 10 pg/mL. Given that the BALF was considered to be at too diluted a concentration, IL-4 was not measured.

[4] = Example 1, LNIT day 14-35, rDp2 IT challenge, mean ± SEM of six animals
[5] = Example 2 (FIP study), mean ± SEN of six mice
[6] = Example 1, percentage of positive stained cells in the PBMC of six mice
[7] = Example 2, percentage of total leukocytes in the peripheral blood of six mice

SMILES: C[C@@H]1C[C@H]2[C@@H]3CCC4=CC(=O)C=C[C@]4(C)[C@@]3(F)[C@@H](O)C[C@]2(C)[C@@]1(O)C(=O)CO [DEX, Dexamethasone, reference compound]
- Eosinophil (Balb/c mice [1]; [4]): 3.2 ± 0.4* 10^4 cells/mL
- Lymphocyte (Balb/c mice [1]; [4]): 9.4 ± 1.5* 10^4 cells/mL
- Macrophage (Balb/c mice [1]; [4]): 29.2 ± 4.4* 10^4 cells/mL
- Neutrophil (Balb/c mice [1]; [4]): 6.6 ± 1.0* 10^4 cells/mL
- Total cell (Balb/c mice [1]; [4]): 46.4 ± 2.2* 10^4 cells/mL
- Eosinophil (Balb/c mice [1]; [5]): 3.8 ± 0.5 ×10^4/mL
- Lymphocyte (Balb/c mice [1]; [5]): 15.3 ± 0.6 ×10^4/mL
- Macrophage (Balb/c mice [1]; [5]): 28.3 ± 1.7 ×10^4/mL
- Neutrophil (Balb/c mice [1]; [5]): 8.0 ± 0.8 ×10^4/mL
- CD4^+ (Balb/c mice [2]; [6]): 45.6 percentage
- CD8^+ (Balb/c mice [2]; [6]): 7.0 percentage
- IFN-γ^+/CD4^+ (Balb/c mice [2]; [6]): 7.9 percentage
- IFN-γ^+/CD8^+ (Balb/c mice [2]; [6]): 7.9 percentage
- IL-5^+/CD4^+ (Balb/c mice [2]; [6]): 9.2 percentage
- IL-5^+/CD8^+ (Balb/c mice [2]; [6]): 8.2 percentage
- IL-5/IFN-γ (CD4) (Balb/c mice [2]; Example 1, ratio of IL-5 to IFN-γ producing CD4 cells): 1.2
- IL-5/IFN-γ (CD8) (Balb/c mice [2]; Example 1, ratio of IL-5 to IFN-γ producing CD8 cells): 1.0
- CD4 (Balb/c mice [2]; [7]): 51.2 percentage
- CD8 (Balb/c mice [2]; [7]): 7.9 percentage
- IFN-γ^+/CD4^+ (Balb/c mice [2]; [7]): 17.7 percentage
- IFN-γ^+/CD8^+ (Balb/c mice [2]; [7]): 14.1 percentage
- IL-5^+/CD4^+ (Balb/c mice [2]; [7]): 15.8 percentage
- IL-5^+/CD8^+ (Balb/c mice [2]; [7]): 14.1 percentage
- IL-5/IFN-γ (CD4) (Balb/c mice [2]; Example 2, ratio, CD4 cells): 0.9
- IL-5/IFN-γ (CD8) (Balb/c mice [2]; Example 2, ratio, CD8 cells): 1.0
- IFN-γ (Balb/c mice [3]; BALF): 9.9 ± 0.6 pg/mL
- IL-5 (Balb/c mice [3]; BALF): 19.2 ± 1.2 pg/mL
- IFN-γ (Balb/c mice [3]; Sera): 46.2 ± 3.4 pg/mL
- IL-5 (Balb/c mice [3]; Sera): 138.0 ± 16.6 pg/mL
